According to ChEMBL document CHEMBL1909046, “DrugMatrix in vitro pharmacology data”:
pIC50, pKi: −log10 of the molar value.

Legend:
[1] = target: Mitogen-activated protein kinase 3 (Homo sapiens, UniProt P27361); assay: DRUGMATRIX: Protein Serine/Threonine Kinase, ERK1 enzyme inhibition (substrate: Myelin Basic Protein); parameters: species or system Escherichia coli; conditions: Not Active = under 50% inhibition at 10 µM
[2] = target: Epidermal growth factor receptor (Homo sapiens, UniProt P00533); assay: DRUGMATRIX: Protein Tyrosine Kinase, EGF Receptor enzyme inhibition (substrate: Poly(Glu:Tyr)); assay type: cell-based, Insect cells; conditions: Not Active = under 50% inhibition at 10 µM; for IC50: insect cells
Chain of Epidermal growth factor receptor (P00533 whole entry): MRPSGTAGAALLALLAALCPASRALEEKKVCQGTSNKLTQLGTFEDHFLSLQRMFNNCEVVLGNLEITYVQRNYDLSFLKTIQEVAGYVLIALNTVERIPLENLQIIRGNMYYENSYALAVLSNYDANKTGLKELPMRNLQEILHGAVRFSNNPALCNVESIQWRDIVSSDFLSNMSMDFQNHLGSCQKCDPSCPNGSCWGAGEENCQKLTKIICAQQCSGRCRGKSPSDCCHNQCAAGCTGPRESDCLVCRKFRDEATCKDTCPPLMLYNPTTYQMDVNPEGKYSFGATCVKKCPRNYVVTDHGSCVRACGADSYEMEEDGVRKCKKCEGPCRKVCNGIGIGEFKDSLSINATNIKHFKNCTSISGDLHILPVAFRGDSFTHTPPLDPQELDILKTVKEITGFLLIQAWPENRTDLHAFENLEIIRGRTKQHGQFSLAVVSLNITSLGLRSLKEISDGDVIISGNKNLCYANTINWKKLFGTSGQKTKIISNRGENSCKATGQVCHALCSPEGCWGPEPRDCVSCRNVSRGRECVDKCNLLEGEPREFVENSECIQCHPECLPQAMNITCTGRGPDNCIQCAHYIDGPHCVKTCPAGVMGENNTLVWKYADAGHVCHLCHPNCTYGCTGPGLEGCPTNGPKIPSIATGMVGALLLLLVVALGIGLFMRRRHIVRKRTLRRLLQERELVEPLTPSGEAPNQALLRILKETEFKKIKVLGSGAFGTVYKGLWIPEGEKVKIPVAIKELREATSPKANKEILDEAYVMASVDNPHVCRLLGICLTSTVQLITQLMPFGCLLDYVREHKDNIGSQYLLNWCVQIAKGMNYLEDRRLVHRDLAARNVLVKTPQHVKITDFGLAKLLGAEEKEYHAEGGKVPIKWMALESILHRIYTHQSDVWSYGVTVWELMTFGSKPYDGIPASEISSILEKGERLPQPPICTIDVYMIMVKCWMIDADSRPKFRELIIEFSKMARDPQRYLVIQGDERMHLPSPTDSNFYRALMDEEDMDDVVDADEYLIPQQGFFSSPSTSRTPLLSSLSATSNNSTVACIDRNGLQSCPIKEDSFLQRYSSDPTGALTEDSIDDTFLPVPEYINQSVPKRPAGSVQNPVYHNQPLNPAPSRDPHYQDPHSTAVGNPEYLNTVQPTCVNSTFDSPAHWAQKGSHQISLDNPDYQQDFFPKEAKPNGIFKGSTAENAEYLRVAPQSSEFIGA

[3] = target: 5-hydroxytryptamine receptor 1B (Rattus norvegicus, UniProt P28564); assay type: cell membranes, Wistar, Cerebral cortex, Membrane; also: in other assays of this panel Not Active means under 50% inhibition at 10 µM
Chain of 5-hydroxytryptamine receptor 1B (P28564 whole entry): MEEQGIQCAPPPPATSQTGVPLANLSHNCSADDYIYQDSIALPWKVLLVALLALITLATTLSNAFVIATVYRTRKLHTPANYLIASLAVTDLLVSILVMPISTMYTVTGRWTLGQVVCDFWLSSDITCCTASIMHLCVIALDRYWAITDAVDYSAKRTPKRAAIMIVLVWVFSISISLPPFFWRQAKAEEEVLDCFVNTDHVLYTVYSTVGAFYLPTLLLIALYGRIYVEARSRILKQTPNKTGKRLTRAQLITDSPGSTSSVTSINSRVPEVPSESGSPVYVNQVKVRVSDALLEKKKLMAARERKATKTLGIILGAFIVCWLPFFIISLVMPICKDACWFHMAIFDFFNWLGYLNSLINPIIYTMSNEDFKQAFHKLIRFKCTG

B2 bradykinin receptor = target: T1, B2 bradykinin receptor (Homo sapiens, UniProt P30411); assay type: cell membranes, Membrane; conditions: chem-1; also: in other assays of this panel Not Active means under 50% inhibition at 10 µM
T1 sequence (P30411 whole entry): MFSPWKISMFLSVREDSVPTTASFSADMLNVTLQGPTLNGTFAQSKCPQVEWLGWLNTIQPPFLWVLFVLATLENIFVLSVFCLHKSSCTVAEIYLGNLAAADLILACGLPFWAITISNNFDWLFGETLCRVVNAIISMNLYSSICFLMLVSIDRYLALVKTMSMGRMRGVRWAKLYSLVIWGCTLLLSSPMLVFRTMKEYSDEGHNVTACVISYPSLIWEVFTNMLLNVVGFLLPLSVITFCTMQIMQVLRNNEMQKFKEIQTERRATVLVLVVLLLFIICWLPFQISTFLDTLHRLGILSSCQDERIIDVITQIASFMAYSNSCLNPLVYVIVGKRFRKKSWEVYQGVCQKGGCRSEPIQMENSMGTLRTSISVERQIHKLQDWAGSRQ

Cytochrome P450 1A2 = target: T2, Cytochrome P450 1A2 (Homo sapiens, UniProt P05177); conditions: bti-tn-5b1-4; also: in other assays of this panel Not Active means under 50% inhibition at 10 µM
T2 sequence (P05177 whole entry): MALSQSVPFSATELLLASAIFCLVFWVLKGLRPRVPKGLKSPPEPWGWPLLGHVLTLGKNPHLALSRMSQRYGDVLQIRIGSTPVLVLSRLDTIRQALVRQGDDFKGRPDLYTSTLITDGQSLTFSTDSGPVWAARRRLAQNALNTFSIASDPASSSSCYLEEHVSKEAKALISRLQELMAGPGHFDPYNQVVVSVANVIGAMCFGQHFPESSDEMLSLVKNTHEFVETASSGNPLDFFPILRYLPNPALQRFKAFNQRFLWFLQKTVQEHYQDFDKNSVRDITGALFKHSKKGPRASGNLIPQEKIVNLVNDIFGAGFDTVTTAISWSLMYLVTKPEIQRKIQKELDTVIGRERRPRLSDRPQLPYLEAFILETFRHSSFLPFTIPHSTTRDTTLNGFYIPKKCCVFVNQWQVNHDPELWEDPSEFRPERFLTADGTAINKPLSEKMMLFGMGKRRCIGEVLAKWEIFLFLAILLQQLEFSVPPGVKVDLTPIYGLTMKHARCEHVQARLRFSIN

[4] = DRUGMATRIX: Nicotinic Acetylcholine radioligand binding (ligand: [125I] Epibatidine); assay type: cell membranes, Membrane; conditions: imr-32; Not Active = under 50% inhibition at 10 µM
[5] = DRUGMATRIX: GABAA, Flunitrazepam, Central radioligand binding (ligand: [3H] Flunitrazepam); assay type: cell membranes, Rattus norvegicus, Wistar, Brain, Membrane; conditions: Not Active = under 50% inhibition at 10 µM

Chain of Mitogen-activated protein kinase 3 (P27361 whole entry): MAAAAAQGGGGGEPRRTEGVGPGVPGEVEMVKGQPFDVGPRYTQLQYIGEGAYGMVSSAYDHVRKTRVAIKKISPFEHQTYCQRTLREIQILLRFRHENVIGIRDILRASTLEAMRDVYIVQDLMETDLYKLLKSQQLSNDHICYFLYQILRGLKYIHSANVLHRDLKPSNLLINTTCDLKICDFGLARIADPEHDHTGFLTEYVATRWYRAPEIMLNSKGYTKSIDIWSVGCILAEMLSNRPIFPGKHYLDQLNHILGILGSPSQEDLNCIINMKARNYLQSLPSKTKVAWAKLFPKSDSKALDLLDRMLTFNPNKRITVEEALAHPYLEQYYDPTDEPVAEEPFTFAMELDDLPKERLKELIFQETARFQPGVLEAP

CN[C@H]1CC[C@@H](c2ccc(Cl)c(Cl)c2)c2ccccc21 [SERTRALINE]
Not Active: IC50 [1] | IC50 [2] | IC50 [3] | IC50 (B2 bradykinin receptor) | IC50 (Cytochrome P450 1A2) | Ki (Cytochrome P450 1A2)

O=C(Oc1ccccc1C(=O)O)c1ccccc1O [SALSALATE]
Not Active: IC50 [1] | IC50 [2] | IC50 [3] | IC50 (B2 bradykinin receptor) | IC50 (Cytochrome P450 1A2) | Ki (Cytochrome P450 1A2) | IC50 [4] | Ki [4] | IC50 [5] | Ki [5]

NC(=O)N1C(=O)/C(=C(\O)c2cccs2)c2cc(Cl)ccc21 [TENIDAP]
Not Active: IC50 [1] | IC50 [2] | IC50 [3] | IC50 (B2 bradykinin receptor) | IC50 [4] | Ki [4] | IC50 [5] | Ki [5]

O=C1C(CC[S+]([O-])c2ccccc2)C(=O)N(c2ccccc2)N1c1ccccc1 (centres undefined) [SULFINPYRAZONE]
Not Active: IC50 [1] | IC50 [2] | IC50 [3] | IC50 (B2 bradykinin receptor) | IC50 (Cytochrome P450 1A2) | Ki (Cytochrome P450 1A2) | IC50 [4] | Ki [4] | IC50 [5] | Ki [5]

N#Cc1ccc(C(c2ccc(C#N)cc2)n2cncn2)cc1 [LETROZOLE]
Not Active: IC50 [1] | IC50 [2] | IC50 [3] | IC50 (B2 bradykinin receptor) | IC50 [4] | Ki [4] | IC50 [5] | Ki [5]

Fc1ccc(C(c2ccc(F)cc2)N2CCN(C/C=C/c3ccccc3)CC2)cc1 [FLUNARIZINE]
Not Active: IC50 [1] | IC50 [2] | IC50 [3] | IC50 (B2 bradykinin receptor) | IC50 (Cytochrome P450 1A2) | Ki (Cytochrome P450 1A2)

CN(C)CCOC(c1ccccc1)c1ccccc1 [DIPHENHYDRAMINE]
Not Active: IC50 [1] | IC50 [2] | IC50 [3] | IC50 (B2 bradykinin receptor)

CCCCNc1ccc(C(=O)OCCN(C)C)cc1 [TETRACAINE]
Not Active: IC50 [1] | IC50 [2] | IC50 [3] | IC50 (B2 bradykinin receptor) | IC50 [4] | Ki [4] | IC50 [5] | Ki [5]

CCN(CC)CC(=O)Nc1c(C)cccc1C [LIDOCAINE]
Not Active: IC50 [1] | IC50 [2] | IC50 [3] | IC50 (B2 bradykinin receptor) | IC50 [4] | Ki [4] | IC50 [5] | Ki [5]

CNCCC(Oc1ccc(C(F)(F)F)cc1)c1ccccc1 (centres undefined) [FLUOXETINE]
Not Active: IC50 [1] | IC50 [2] | IC50 [3] | IC50 (B2 bradykinin receptor) | IC50 (Cytochrome P450 1A2) | Ki (Cytochrome P450 1A2)

COc1c2occc2cc2ccc(=O)oc12 [METHOXSALEN]
Not Active: IC50 [1] | IC50 [2] | IC50 [3] | IC50 (B2 bradykinin receptor) | IC50 [4] | Ki [4] | IC50 [5] | Ki [5]

Cc1c(C)c2c(c(C)c1O)CCC(C)(CN1CCN(c3cc(N4CCCC4)nc(N4CCCC4)n3)CC1)O2 (centres undefined)
5.30: pIC50 ([1]; read-out: IC50)
Not Active: IC50 [2] | IC50 [3] | IC50 (B2 bradykinin receptor) | IC50 [4] | Ki [4] | IC50 [5] | Ki [5]

Cc1ccc(NC(=O)c2ccc(CN3CCN(C)CC3)cc2)cc1Nc1nccc(-c2cccnc2)n1 [IMATINIB]
Not Active: IC50 [3] | IC50 (B2 bradykinin receptor) | IC50 (Cytochrome P450 1A2) | Ki (Cytochrome P450 1A2)

Clc1ccc(COC(Cn2ccnc2)c2ccc(Cl)cc2Cl)cc1 (centres undefined) [ECONAZOLE]
Not Active: IC50 [1] | IC50 (B2 bradykinin receptor)
5.00: pKi ([3]; read-out: Ki)
4.66: pIC50 ([3]; read-out: IC50)
4.49: pIC50 ([2]; read-out: IC50)
